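Growth conditions: 96-well plates. Treatment: test compound, 48 hours, 5 concentrations. Analysis: linear interpolation between bracketing concentrations; unreached endpoints set to highest concentration. The concentration for 50% growth inhibition is given as GI50. At the TGI there is no net growth.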

Results on 13 molecules are retold here after PubChem BioAssay (NCI).

Some test systems named below: OVCAR-4 ovarian; SK-MEL-2 melanoma; HCC-2998 colon; HCT-116 colon; UACC-62 melanoma; OVCAR-8 ovarian; HOP-62 NSCLC; TK-10 renal; MOLT-4 leukemia.
Common to all, as to experiment: NCI anticancer screen, dose series, 48 h

On to `CC(=O)OCCOCNC(=S)N/N=C(\C)c1ccco1`, for which the TGI in the assay on OVCAR-4 ovarian, in the assay on SK-MEL-2 melanoma, in the assay on HCC-2998 colon, with HCT-116 colon, in the assay with UACC-62 melanoma and with OVCAR-8 ovarian was > 100 µM in each case. In addition, the TGI with HOP-62 NSCLC and with TK-10 renal was > 100 µM throughout.
As for `CCC(=O)O[C@@H]1C2C(OC(C)=O)C34COC(C)([C@@H]3C3C(C[C@]3(C)OC(C)=O)[C@@H](OC(=O)c3ccccc3)C4=O)[C@H](OC(C)=O)[C@@]2(OC(C)=O)C[C@@H]1C` (stereo not given in full), the TGI with OVCAR-4 ovarian was 44.7 µM; with SK-MEL-2 melanoma, > 100 µM; in the assay with HCC-2998 colon it was > 100 µM; in the assay on HCT-116 colon, > 100 µM; with UACC-62 melanoma it was > 100 µM; in the assay on OVCAR-8 ovarian, > 100 µM. Further, the TGI in the assay with MOLT-4 leukemia was > 100 µM; in the assay with HOP-62 NSCLC, > 100 µM; with TK-10 renal, 46 µM.
For the molecule `Cn1cc(C(=O)C2CCCCC2)ccc1=O`, the TGI in the assay with OVCAR-4 ovarian, in the assay with SK-MEL-2 melanoma, with HCC-2998 colon, with HCT-116 colon, in the assay with UACC-62 melanoma and with OVCAR-8 ovarian was > 100 µM throughout. Further, the TGI with MOLT-4 leukemia, in the assay with HOP-62 NSCLC and with TK-10 renal was > 100 µM each time.
Regarding `COc1ccccc1NC(=O)C1=C(C)NC(C)=C(C(=O)Nc2ccccc2OC)C1c1ccc(C(C)C)cc1`, the TGI in the assay with OVCAR-4 ovarian, with SK-MEL-2 melanoma, in the assay with HCC-2998 colon, in the assay on HCT-116 colon, in the assay with UACC-62 melanoma and with OVCAR-8 ovarian was > 100 µM throughout. The TGI with MOLT-4 leukemia, in the assay with HOP-62 NSCLC and in the assay with TK-10 renal was > 100 µM each time.
As for `CC(CN(CP(=O)([O-])[O-])CP(=O)([O-])[O-])N(CP(=O)([O-])[O-])CP(=O)([O-])[O-].N[C@@H]1CCCC[C@@H]1N.[Pt+2]` (stereo not given), the GI50 in the assay with OVCAR-4 ovarian, in the assay on SK-MEL-2 melanoma, in the assay on HCC-2998 colon, with HCT-116 colon, with UACC-62 melanoma and in the assay on OVCAR-8 ovarian was > 100 µM each time. The GI50 with MOLT-4 leukemia, in the assay with HOP-62 NSCLC and in the assay on TK-10 renal was > 100 µM throughout. The TGI in the assay with OVCAR-4 ovarian, with SK-MEL-2 melanoma, in the assay with HCC-2998 colon, with HCT-116 colon, in the assay on UACC-62 melanoma and with OVCAR-8 ovarian was > 100 µM in each case. Also, the TGI in the assay on MOLT-4 leukemia, in the assay with HOP-62 NSCLC and with TK-10 renal was > 100 µM each time.
`Cc1ccc(S(=O)(=O)N2CCCCC2CCO)cc1` (stereo not given): the TGI in the assay with OVCAR-4 ovarian, in the assay with SK-MEL-2 melanoma, with HCC-2998 colon, in the assay on HCT-116 colon, with UACC-62 melanoma and in the assay on OVCAR-8 ovarian was > 100 µM each time. In addition, the TGI with MOLT-4 leukemia, in the assay with HOP-62 NSCLC and in the assay with TK-10 renal was > 100 µM each time.
As for `Cc1cc(Cl)ccc1NC(=O)C1C(=O)N(c2ccc(Cl)cc2C)C(=O)/C1=N\N` (stereo not given), the TGI is > 100 µM in the assay on OVCAR-4 ovarian; 90.9 µM with SK-MEL-2 melanoma; 67.3 µM in the assay with HCC-2998 colon; > 100 µM with HCT-116 colon; > 100 µM in the assay with UACC-62 melanoma; > 100 µM with OVCAR-8 ovarian. The TGI is > 100 µM in the assay on MOLT-4 leukemia, > 100 µM with HOP-62 NSCLC and 99.3 µM with TK-10 renal.
Turning to `O=C(/C=C/c1ccccc1F)C(c1ccccc1)c1ccccc1`, the TGI was 6.15 µM in the assay with SK-MEL-2 melanoma; 6.4 µM in the assay on HCT-116 colon; 4.56 µM with UACC-62 melanoma; 6.6 µM with MOLT-4 leukemia; 14.6 µM in the assay with TK-10 renal.
For `CCN(CCCl)CCNc1c2ccccc2nc2ccc(OC)cc12`, the TGI in the assay on OVCAR-4 ovarian came to 3.24 µM; in the assay with SK-MEL-2 melanoma, 2.52 µM; in the assay on HCC-2998 colon, 2.15 µM; with HCT-116 colon, 2.1 µM; with UACC-62 melanoma it was 1.94 µM; in the assay with OVCAR-8 ovarian, 2.26 µM. Besides, the TGI stood at 0.341 µM with MOLT-4 leukemia, 3.85 µM in the assay on HOP-62 NSCLC and 5.82 µM in the assay on TK-10 renal.
Regarding `CC(C)(C)c1cc(C(O)(C(F)(F)F)C(F)(F)F)c2c(c1)C(C(F)(F)F)(C(F)(F)F)OC(c1ccccc1)(C(C)(C)C)N2` (stereo not given), the TGI worked out at 46.3 µM with OVCAR-4 ovarian; 19.7 µM in the assay on SK-MEL-2 melanoma; 21.1 µM with HCC-2998 colon; 13.2 µM in the assay on HCT-116 colon; 14.6 µM in the assay on UACC-62 melanoma; 26.2 µM in the assay with OVCAR-8 ovarian. The TGI in the assay with MOLT-4 leukemia was found to be 4.91 µM; in the assay with TK-10 renal, 14.2 µM.
With `O=C1C(c2ccccc2)=C(c2ccccc2)C(c2ccccc2)/C1=C1\C(=O)C(c2ccccc2)=C(c2ccccc2)C1c1ccccc1` (stereo not given), the TGI in the assay on OVCAR-4 ovarian, in the assay on SK-MEL-2 melanoma, in the assay with HCC-2998 colon, with HCT-116 colon, in the assay on UACC-62 melanoma and with OVCAR-8 ovarian was > 100 µM throughout. The TGI with MOLT-4 leukemia, with HOP-62 NSCLC and in the assay on TK-10 renal was > 100 µM throughout.
With `CC(C)(C)c1ccccc1NS(=O)(=O)c1ccccc1`, the TGI in the assay on OVCAR-4 ovarian, in the assay on SK-MEL-2 melanoma, in the assay on HCC-2998 colon, in the assay on HCT-116 colon, in the assay with UACC-62 melanoma and with OVCAR-8 ovarian was > 100 µM each time. Besides, the TGI in the assay on MOLT-4 leukemia, with HOP-62 NSCLC and with TK-10 renal was > 100 µM each time.
With `Cc1cccc(C)c1NC(=O)C(=O)C1C(=O)N(c2ccccc2)N=C1N` (stereo not given), the TGI in the assay with OVCAR-4 ovarian, in the assay with SK-MEL-2 melanoma, with HCC-2998 colon, with HCT-116 colon, with UACC-62 melanoma and in the assay on OVCAR-8 ovarian was > 100 µM throughout. Moreover, the TGI in the assay with MOLT-4 leukemia, with HOP-62 NSCLC and in the assay with TK-10 renal was > 100 µM each time.
